Measured values published in patent EP4656642A1, “ESTROGEN RECEPTOR PROTEOLYSIS TARGETING CHIMERA COMPOUND AND USE THEREOF” (GAN & LEE PHARM CO., LTD, priority 2023, dated 2024).

Assays:
Type in all cases: cell-based
[1] = system: MCF-7 cells; test: Inhibition of cell proliferation of MCF-7 cells (CCK-8, 9 days); settings: treated for 9 days, CCK-8 kit (Table 6)
Method in brief: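 MCF-7 cells seeded at 800 cells/well in DMEM with 10% FBS, exposed to a range of compound concentrations for 9 days at 37°C, 5% CO2. Viability read by CCK-8; IC50 derived for proliferation inhibition.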

[2] = biological target: T1, ERα (Homo sapiens, UniProt P03372); test: Degradation of ERα in MCF-7 cells (immunoblotting, 4 h)
T1 sequence (P03372 1-595): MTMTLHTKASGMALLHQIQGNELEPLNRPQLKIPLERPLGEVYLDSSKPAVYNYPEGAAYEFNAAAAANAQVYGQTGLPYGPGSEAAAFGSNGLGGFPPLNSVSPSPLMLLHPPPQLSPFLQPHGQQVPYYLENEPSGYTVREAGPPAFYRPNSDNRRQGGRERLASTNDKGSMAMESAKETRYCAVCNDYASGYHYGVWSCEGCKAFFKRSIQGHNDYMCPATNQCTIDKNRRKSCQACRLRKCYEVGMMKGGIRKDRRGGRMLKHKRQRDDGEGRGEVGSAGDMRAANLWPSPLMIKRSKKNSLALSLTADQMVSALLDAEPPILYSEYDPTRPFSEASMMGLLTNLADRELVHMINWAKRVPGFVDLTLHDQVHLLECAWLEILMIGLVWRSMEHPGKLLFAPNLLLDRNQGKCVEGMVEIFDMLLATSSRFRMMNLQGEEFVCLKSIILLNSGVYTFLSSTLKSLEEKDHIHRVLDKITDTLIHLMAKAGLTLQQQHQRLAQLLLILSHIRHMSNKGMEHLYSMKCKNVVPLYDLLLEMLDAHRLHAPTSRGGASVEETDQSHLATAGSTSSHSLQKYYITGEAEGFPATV
Method in brief: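 MCF-7 cells treated 4 h at 37°C with compounds at 0.15-1000nM final. ERα in lysates measured by immunoblot, with band grayscale normalized to an internal reference protein. Degradation rate calculated against DMSO-treated control.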

[3] = system: T-47D cells; test: Inhibition of cell proliferation in T-47D cells (CCK-8, 6 days); settings: 6 days of treatment, Table 3
Method in brief: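 T-47D cells at 3,000 cells/well in RPMI 1640 with 10% FBS were exposed to a concentration series of PROTAC compounds for 6 days at 37 °C, 5% CO2. Viability was read by CCK-8, and IC50 values were derived for proliferation inhibition.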

[4] = biological target: T1, ERα; test: Degradation of ERα in T-47D cells (immunoblotting, 4 h); design: host or cells: T-47D
Method in brief: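 T-47D cells were treated with compound (final 0.15-1000 nM, DMSO) for 4 h at 37°C, 5% CO2. Cells were lysed in RIPA buffer with protease inhibitor, and ERα protein in the cleared lysate was measured by immunoblotting.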

Row | SMILES | IC50 [1] [nM] | Degradation rate (%) of ERα in MCF-7 cells ([2]; 1nM compound) [%] | Degradation rate (%) of ERα in MCF-7 cells ([2]; 10nM compound) [%] | IC50 [3] [nM] | Degradation rate (%) of ERα in T-47D cells ([4]; 1nM compound) [%] | Degradation rate (%) of ERα in T-47D cells ([4]; 10nM compound) [%]
1 | O=C1CCC(N2Cc3ccc4c(c3C2=O)OCC42CCN(C3CCN(C(=O)C4CCN(c5ccc([C@@H]6c7ccc(O)cc7CC[C@@H]6c6ccccc6)cc5)CC4)CC3)CC2)C(=O)N1 (stereo partly drawn) [A94] | 45 | 22 | 48 | 2.74 | 54 | 80
2 | O=C1CCC(N2Cc3c(ccc4c3OCC43CCN(CC4(F)CCN(C(=O)C5CCN(c6ccc([C@@H]7c8ccc(O)cc8CC[C@@H]7c7ccccc7)cc6)CC5)CC4)CC3)C2=O)C(=O)N1 (stereo partly drawn) [A105] | 26600 | 7 | 43 | 1.3 | 38 | 73
3 | O=C1CCC(N2Cc3c(ccc4c3OCC43CCN(C4CCN(C(=O)C5CC6(CCN(c7ccc([C@@H]8c9ccc(O)cc9CC[C@@H]8c8ccccc8)cc7)CC6)C5)CC4)CC3)C2=O)C(=O)N1 (stereo partly drawn) [A85] | 9880 | 45 | 65 | 1.12 | 68 | 88
4 | O=C1CCC(N2Cc3c(ccc4c3OCC43CCN(C(=O)C4CCC(CN5CCN(c6ccc(C7c8ccc(O)cc8CCC7c7ccccc7)cc6)CC5)CC4)CC3)C2=O)C(=O)N1 (stereo not drawn) [C5] | 6.7 | 43 | 66 | 1.3 | 52 | 77
5 | O=C1CCC(N2Cc3cc4c(cc3C2=O)CCC2(CN(C3CCC(N5CCN(c6ccc([C@@H]7c8ccc(O)cc8CC[C@@H]7c7ccccc7)cc6)CC5)CC3)C2)O4)C(=O)N1 (stereo partly drawn) [B15] | 48.3 | -13 | -18 | 31.7 | -4 | 3
6 | O=C1CCC(N2Cc3cc4c(cc3C2=O)OC2(CC4)CCN(CC3CCC4(CC3)CCN(c3ccc([C@@H]5c6ccc(O)cc6CC[C@@H]5c5ccccc5)cc3)CC4)CC2)C(=O)N1 (stereo partly drawn) [A40] | 76 | 15 | 35 | 13 | 6 | 25
7 | O=C1CCC(N2Cc3c(ccc4c3OCC43CCN(C(=O)C4CC5(CCN(c6ccc([C@@H]7c8ccc(O)cc8CC[C@@H]7c7ccccc7)cc6)CC5)C4)CC3)C2=O)C(=O)N1 (stereo partly drawn) [A86] | 85 | 5 | 32 | 1.64 | 46 | 74
8 | O=C1CCC(N2Cc3c(ccc4c3OCC43CCN(C4CCN(C(=O)C5(F)CCN(c6ccc([C@@H]7c8ccc(O)cc8CC[C@@H]7c7ccccc7)cc6)CC5)CC4)CC3)C2=O)C(=O)N1 (stereo partly drawn) [A89] | 110 | 48 | 72 | 2.16 | 40 | 70
9 | C[C@@H]1Cc2c([nH]c3ccccc23)[C@@H](c2c(F)cc(N3CCC4(CCC(N5CCC6(CC5)COc5c6ccc6c5CN(C5CCC(=O)NC5=O)C6=O)CC4)CC3)cc2F)N1CC(F)F (stereo partly drawn) [A103] | 13.6 | 37 | 70 | 2.99 | 29 | 68
10 | C[C@@H]1Cc2c(ccc3[nH]ncc23)[C@@H](c2c(F)cc(N3CCC4(CCN(CC(=O)N5CCC6(CC5)COc5c6ccc6c5CN(C5CCC(=O)NC5=O)C6=O)CC4)CC3)cc2F)N1CC(F)F (stereo partly drawn) [C10] | 54.8 | 53 | 65 | 0.5 | 65 | 80
11 | O=C1CCC(N2Cc3c(ccc4c3OCC43CCN(C(=O)C4CCN(c5ccc([C@@H]6c7ccc(O)cc7CC[C@@H]6c6ccccc6)cc5)CC4)CC3)C2=O)C(=O)N1 (stereo partly drawn) [A52] | 5680 | -22 | -33 | 10.9 | 3 | 2
12 | CN(CC(=O)N1CCC2(CC1)COc1c2ccc2c1C(=O)N(C1CCC(=O)NC1=O)C2=O)C1CCC2(CC1)CN(c1ccc([C@@H]3c4ccc(O)cc4CC[C@@H]3c3ccccc3)cc1)C2 (stereo partly drawn) [C19] | 23100 | 15 | 45 | 14.7 | 32 | 65

Further lines, results first:

Row | IC50 [1] [nM] | Degradation rate (%) of ERα in MCF-7 cells ([2]; 1nM compound) [%] | Degradation rate (%) of ERα in MCF-7 cells ([2]; 10nM compound) [%] | IC50 [3] [nM] | Degradation rate (%) of ERα in T-47D cells ([4]; 1nM compound) [%] | Degradation rate (%) of ERα in T-47D cells ([4]; 10nM compound) [%] | SMILES
13 | > 100000 | 24 | 52 | 8.51 | 12 | 66 | O=C1CCC(N2Cc3c(ccc4c3OCC43CCN(C(=O)C4CCC5(CC4)CCN(c4ccc([C@@H]6c7ccc(O)cc7CC[C@@H]6c6ccccc6)cc4)CC5)CC3)C2=O)C(=O)N1 (stereo partly drawn) [L27]
14 | 1940 | 60 | 53 | 1.1 | 68 | 86 | CCN(CC(=O)N1CCC2(CC1)COc1c2ccc2c1CN(C1CCC(=O)NC1=O)C2=O)CC1CCN(c2ccc([C@@H]3c4ccc(O)cc4CC[C@@H]3c3ccccc3)cc2)CC1 (stereo partly drawn) [J12]
15 | 857 | 9 | -14 | 16.7 | -6 | -10 | O=C1CCC(N2Cc3cc4c(cc3C2=O)OCC42CCN(CC3CCN(c4ccc([C@@H]5c6ccc(O)cc6CC[C@@H]5c5ccccc5)cc4)CC3)CC2)C(=O)N1 (stereo partly drawn) [J1]
16 | 19.6 | 37 | 70 | 2.59 | 4 | 44 | CC1CN(C2CC3(CCN(c4ccc([C@@H]5c6ccc(O)cc6CC[C@@H]5c5ccccc5)cc4)CC3)C2)CCC1N1CCC2(CC1)COc1c2ccc2c1CN(C1CCC(=O)NC1=O)C2=O (stereo partly drawn) [K20]
17 | 5.06 | 36 | 73 | 3.74 | 53 | 85 | O=C1CCC(N2Cc3c(ccc4c3OCC43CCN(C4CCN(C5CC6(CCN(c7ccc([C@@H]8c9ccc(O)cc9CC[C@@H]8c8ccccc8)cc7)CC6)C5)[C@H](C(=O)NC5CCCC5)C4)CC3)C2=O)C(=O)N1 (stereo partly drawn) [H44]
18 | 16.2 | 25 | 61 | 1.47 | 58 | 78 | O=C1CCC(N2Cc3c(ccc4c3OCC43CCN(C4CCN(C(=O)C5CCN(c6ccc([C@@H]7c8ccc(O)cc8CC[C@@H]7c7ccccc7)cc6)CC5)[C@H](C(=O)N5CCC5)C4)CC3)C2=O)C(=O)N1 (stereo partly drawn) [H45]
19 | 57.9 | 69 | 84 | 1.42 | 56 | 86 | CCNC(=O)[C@@H]1CC(N2CCC3(CC2)COc2c3ccc3c2CN(C2CCC(=O)NC2=O)C3=O)CCN1C1CC2(CCN(c3ccc([C@@H]4c5ccc(O)cc5CC[C@@H]4c4ccccc4)cc3)CC2)C1 (stereo partly drawn) [H40]
20 | 25400 | -2 | 31 | 6.6 | 21 | 55 | CCN(CC1CCN(c2ccc([C@@H]3c4ccc(O)cc4CC[C@@H]3c3ccccc3)cc2)CC1)[C@H]1CC[C@@H](C(=O)N2CCC3(CC2)COc2c3ccc3c2CN(C2CCC(=O)NC2=O)C3=O)CC1 (stereo partly drawn) [N8]
